Source: patent US9844563B2, “Compositions, kits, and methods to induce acquired cytoresistance using stress protein inducers” (FRED HUTCHINSON CANCER RESEARCH CENTER, priority 2014, dated 2017)

Assays:
[1] = tested on: IL-10; test: Liver IL-10 mRNA and protein after N-Mgb, SnPP or both; type: in vivo, mice; settings: 18 h after Rx treatment
Experimental: (§1) Thirty-two mice were divided into 4 equal groups: (1) control mice; (2) mice treated with 1 mg of N-Mgb injection (as a bolus through the tail vein); (3) mice treated with […] of SnPP (via tail vein); and (4) mice treated with combined N-Mgb 1 SnPP. After either 4 hours (n=16) or 18 hours (n=16), the mice were deeply anesthetized with pentobarbital (50 mg/kg), the abdomen was opened through a midline abdominal incision, and the kidneys were removed. To determine potential effects on extrarenal organs, a liver lobe and the heart were also removed. The tissues were iced and then extracted for protein and RNA (RNeasy Plus Mini; Qiagen, Valencia, Calif.) and subjected to enzyme linked immunosorbent assay (ELISA) and reverse transcriptase polymerase chain reaction (RT-PCR) for HO-1, haptoglobin, and IL-10 protein and messenger RNAs (mRNAs). Zager et al. J Am Soc Nephrol 2014;25:998-1012; Zager et al. Am J Physiol 2012;303:F139-48. As an assessment of renal function, control mice and the 18 hour after N-Mgb+SnPP—treated mice had blood urea nitrogen (BUN) and plasma creatinine levels measured. Additionally, transverse 10% formalin fixed kidney sections ([…]) were cut and stained with hematoxylin and eosin (H&E) and periodic acid Schiff (PAS) to further assess potential injury.

[2] = tested on: Haptoglobin; test: Renal cortical haptoglobin mRNA and protein after N-Mgb, SnPP or both; type: in vivo, mice; settings: renal cortex, 4 h after Rx treatment
Experimental: as §1

[3] = tested on: Mgb-exposed cultured proximal tubule (HK-2) cells; settings: Zager & Burkhart, Kidney Int 1997; cited from earlier work
[4] = tested on: IL-10; test: Renal cortical IL-10 mRNA and protein after N-Mgb, SnPP or both; type: in vivo, mice
Experimental: as §1

[5] = parameters: species or system mice; settings: mouse, in vivo, iv
[6] = Agarwal et al., Kidney Int. 1995; cited from earlier work
[7] = Glycerol model of rhabdomyolysis-induced AKI; type: in vivo, mice; settings: IV pretreatment 18 hours before glycerol; 18 hours after glycerol
Experimental: Assessments of cytoresistance. Glycerol model of rhabdomyolysis-induced AKI. Twenty mice were divided into 4 equal groups (controls, mice treated with N-Mgb, SnPP, and mice treated with N-Mgb+SnPP tail vein injections) as described previously. 18 hours later, the mice were briefly anesthetized with isoflurane and immediately injected with 9 mL/kg of 50% glycerol, administered in equally divided doses into each hind limb. At 18 hours after glycerol injection, the mice were anesthetized with pentobarbital, the abdomen was opened, a blood sample for BUN and creatinine assessments was obtained from the vena cava, and the kidneys were resected. The control post-glycerol group and the N-Mgb+SnPP—pretreated glycerol group had kidney sections stained with H&E.
Calculations and statistics. All values are given as the mean […] standard error of the mean. Statistical comparisons were made by unpaired Student's t test. If multiple comparisons were made, the Bonferroni correction was applied. The severity of renal histologic injury in the glycerol AKI model was graded on a […] (least to most severe tubular necrosis and cast formation observed). The histologic results were compared by Wlcoxon rank sum test. Statistical significance was taken as a P value of <0.05.

[8] = tested on: HO-1; test: Cardiac HO-1 mRNA and protein after N-Mgb, SnPP or both; type: in vivo, mice; settings: 18 h after Rx treatment
Experimental: as §1

[9] = Maleate model of AKI (FeS, SnPP, FeS+SnPP); type: in vivo, mice; settings: IV 1 mg FeS and/or 1 μmole SnPP 18 hrs before IP Na maleate 800 mg/Kg; 18 hrs later
Text: Effects of Fe sucrose (FeS)/tin protoporphyrin (SnPP) on AKI severity. Maleate model of AKI. When injected into rodents, maleate undergoes relatively selective proximal tubule cell uptake via organic anion transporters. Once intracellular accumulation occurs, maleate is a preferred substrate for succinyl-CoA:3-oxoacid CoA transferase. […] Ample levels of CoA are essential for fatty acid “activation”, allowing for their subsequent metabolism through the Krebs cycle, yielding ATP. In the absence of this process, proximal tubule ATP depletion and cell injury result. Additionally, maleate conjugates the sulfhydryl group of glutathione (GSH), culminating in GSH depletion and potential oxidant tubular stress.
The following experiment tested whether FeS, SnPP or combined FeS+SnPP can mitigate this form of acute kidney injury (AKI). Twenty seven mice were subjected to 200 μL IV tail injections of one of the following: 1) vehicle (phosphate buffered saline, PBS; n, 10); 2) 1 mg FeS (American Regent (Shirley, N.Y.; n, 3); 3) 1 μmole SnPP (Frontier Scientific, Logan, Utah; n 7), or FeS+SnPP, n, 7). Eighteen hrs later, all mice received an IP injection of Na maleate (800 mg/Kg; in 500 ul of PBS). […] The severity of kidney injury was assessed by determining plasma blood urea nitrogen (BUN) and plasma creatinine (PCr) concentrations.

In the case of `C=Cc1c2[n-]c(c1C)/C=c1\[n-]/c(c(C)c1C=C)=C\c1[n-]c(c(CCC(=O)O)c1C)C=c1[n-]/c(c(C)c1CCC(=O)O)=C\2.[Sn+4]` [SnPP, Sn-protoporphyrin, reference compound], the “Liver mRNA IL-10” value [1] is listed as 0.05 ± 0.01, the “Kidney Haptoglobin (protein)” value [2] is listed as 13.1 ± 1.3 and the “reduction of Mgb toxicity by SnPP addition” value [3] is listed as at most 85%. The “increase in renal IL-10 mRNA” value ([4]; 4 hours after injection) was “either minimal or no impact”, the “increase in renal IL-10 protein” value ([4]; 18 hours after injection) was “absence of IL-10 protein increases” and the “Kidney IL-10 (protein)” value ([4]; renal cortex, 4 h after Rx treatment) was 550 ± 86. The “Plasma LDH, Average” value [5] was 4.51 Absorbance U LDH/ml, the “effect of pretreatment on renal injury” value [6] was “exacerbated renal injury” and the “protection against glycerol-induced AKI (BUN/creatinine levels)” value [7] was “virtually no effect”. For the same molecule, the “Cardiac mRNA HO-1” value [8] was 0.09 ± 0.03 and the “reductions in BUN/PCr concentrations, maleate-induced AKI” value [9] was “Neither SnPP alone nor FeS alone significantly altered the severity of renal injury”.
